Experimental data from ChEMBL document CHEMBL1142027, “In vivo incorporation of an alkyne into proteins in Escherichia coli” (Bioorg Med Chem Lett, 2005).
Converted amounts (≈) assume the structure as drawn.

System: Escherichia coli
Assay: Inhibitory concentration of compound was determined against Escherichia coli in the absence of alkynyl amino acid 1
Format: functional, organism-based

For `O=C(N[C@H](CO)[C@H](O)c1ccc([N+](=O)[O-])cc1)C(Cl)Cl` [CHLORAMPHENICOL], the IC50 was 5 µg/mL (≈ 15.5 µM).
